Laboratory results: ChEMBL document CHEMBL1201861, “Genomics of Drug Sensitity in Cancer screening data, Wellcome Trust Sanger Institute”

How the values were obtained:
Test in all cases: cells
[1] = tested on: RMG-I; format: functional, cell-based, Homo sapiens; conditions: Homo sapiens, RMG-I;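 further: growth inhibition of human RMG-I cells, read out with a cell viability assay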
Description: SANGER: Inhibition of human RMG-I cell growth in a cell viability assay.

[2] = tested on: SNU1; format: functional, cell-based; conditions: Homo sapiens;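 further: growth inhibition of human NCI-SNU-1 cells, measured with a cell viability assay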
Description: SANGER: Inhibition of human NCI-SNU-1 cell growth in a cell viability assay.

[3] = tested on: LN-405; format: functional, cell-based, Homo sapiens; conditions: Homo sapiens, LN-405
Description: SANGER: Inhibition of human LN-405 cell growth in a cell viability assay.

[4] = tested on: BV-173; format: functional, cell-based; conditions: Homo sapiens
Description: SANGER: Inhibition of human BV-173 cell growth in a cell viability assay.

[5] = tested on: KY821; format: functional, cell-based; conditions: Homo sapiens;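 further: growth inhibition of human KY821 cells, read out by a cell viability assay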
Description: SANGER: Inhibition of human KY821 cell growth in a cell viability assay.

[6] = tested on: G-401; format: functional, cell-based, Homo sapiens; conditions: Homo sapiens, G-401
Description: SANGER: Inhibition of human G-401 cell growth in a cell viability assay.

[7] = tested on: HCC38; format: functional, cell-based, Homo sapiens; conditions: Homo sapiens, HCC38;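 further: cell viability assay on the human HCC38 cell line, with IC50 marking the concentration that inhibits cell growth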
Description: SANGER: Inhibition of human HCC38 cell growth in a cell viability assay.

[8] = tested on: COLO-800; format: functional, cell-based, Homo sapiens; conditions: Homo sapiens, COLO-800;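 further: growth inhibition of COLO-800 cells, read out with a cell viability assay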
Description: SANGER: Inhibition of human COLO-800 cell growth in a cell viability assay.

[9] = tested on: COLO-679; format: functional, cell-based, Homo sapiens; conditions: Homo sapiens, COLO-679
Description: SANGER: Inhibition of human COLO-679 cell growth in a cell viability assay.

[10] = tested on: EW-1; format: functional, cell-based, Homo sapiens; conditions: Homo sapiens, EW-1;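 further: growth inhibition of the human EW-1 cell line, read out by a cell viability assay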
Description: SANGER: Inhibition of human EW-1 cell growth in a cell viability assay.

[11] = tested on: EFO-21; format: functional, cell-based, Homo sapiens; conditions: Homo sapiens, EFO-21;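 further: growth inhibition of EFO-21 cells measured with a viability assay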
Description: SANGER: Inhibition of human EFO-21 cell growth in a cell viability assay.

[12] = tested on: IST-SL1; format: functional, cell-based, Homo sapiens; conditions: Homo sapiens, IST-SL1;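 further: growth inhibition of human IST-SL1 cells, read out with a cell viability assay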
Description: SANGER: Inhibition of human IST-SL1 cell growth in a cell viability assay.

[13] = tested on: Detroit 562; format: functional, cell-based, Homo sapiens; conditions: Homo sapiens, Detroit 562;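 further: growth inhibition of human Detroit 562 cells, read out by a cell viability assay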
Description: SANGER: Inhibition of human Detroit562 cell growth in a cell viability assay.

[14] = tested on: QIMR-WIL; format: functional, cell-based; conditions: Homo sapiens;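 further: growth inhibition of QIMR-WIL cells, read out with a cell viability assay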
Description: SANGER: Inhibition of human QIMR-WIL cell growth in a cell viability assay.

[15] = tested on: HDLM-2; format: functional, cell-based; conditions: Homo sapiens;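 further: cell viability assay measuring suppression of HDLM-2 proliferation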
Description: SANGER: Inhibition of human HDLM-2 cell growth in a cell viability assay.

[16] = tested on: CGTH-W-1; format: functional, cell-based, Homo sapiens; conditions: Homo sapiens, CGTH-W-1;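 further: growth inhibition of human CGTH-W-1 cells measured by cell viability assay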
Description: SANGER: Inhibition of human CGTH-W-1 cell growth in a cell viability assay.

[17] = tested on: NB69; format: functional, cell-based, Homo sapiens; conditions: Homo sapiens, NB69;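 further: growth inhibition of NB69 cells, determined by a cell viability assay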
Description: SANGER: Inhibition of human NB69 cell growth in a cell viability assay.

[18] = tested on: ChaGo-K-1; format: functional, cell-based; conditions: Homo sapiens;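 further: growth inhibition of ChaGo-K-1 cells, read out with a cell viability assay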
Description: SANGER: Inhibition of human ChaGo-K-1 cell growth in a cell viability assay.

[19] = tested on: DSH1; format: functional, cell-based, Homo sapiens; conditions: Homo sapiens, DSH1;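 further: growth inhibition of human DSH1 cells, measured with a cell viability readout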
Description: SANGER: Inhibition of human DSH1 cell growth in a cell viability assay.

[20] = tested on: CCRF-CEM; format: functional, cell-based; conditions: Homo sapiens;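 further: inhibition of CCRF-CEM cell growth, measured by a cell viability assay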
Description: SANGER: Inhibition of human CCRF-CEM cell growth in a cell viability assay.

[21] = tested on: LCLC-103H cell line; format: functional, cell-based, Homo sapiens; conditions: Homo sapiens, LCLC-103H
Description: SANGER: Inhibition of human LCLC-103H cell growth in a cell viability assay.

[22] = tested on: TE-5; format: functional, cell-based, Homo sapiens; conditions: Homo sapiens, TE-5;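 further: inhibition of cell growth, read out by a cell viability assay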
Description: SANGER: Inhibition of human TE-5 cell growth in a cell viability assay.

[23] = tested on: OVCAR-8; format: functional, cell-based, Homo sapiens; conditions: Homo sapiens, OVCAR-8;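 further: growth inhibition of human OVCAR-8 cells, read out by a cell viability assay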
Description: SANGER: Inhibition of human OVCAR-8 cell growth in a cell viability assay.

[24] = tested on: CTV-1; format: functional, cell-based; conditions: Homo sapiens;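 further: growth inhibition of the cell line, read out with a cell viability assay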
Description: SANGER: Inhibition of human CTV-1 cell growth in a cell viability assay.

[25] = tested on: NCI-H1395; format: functional, cell-based, Homo sapiens; conditions: Homo sapiens, NCI-H1395;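 further: cell viability assay read-out quantifying reduced proliferation of human NCI-H1395 cells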
Description: SANGER: Inhibition of human NCI-H1395 cell growth in a cell viability assay.

[26] = tested on: COLO-741; format: functional, cell-based, Homo sapiens; conditions: Homo sapiens, COLO-741
Description: SANGER: Inhibition of human COLO-741 cell growth in a cell viability assay.

[27] = tested on: NEC8; format: functional, cell-based, Homo sapiens; conditions: Homo sapiens, NEC8;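 further: growth inhibition of human NEC8 cells, read out by a cell viability assay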
Description: SANGER: Inhibition of human NEC8 cell growth in a cell viability assay.

[28] = tested on: KURAMOCHI; format: functional, cell-based; conditions: Homo sapiens;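 further: growth inhibition of KURAMOCHI cells, read out with a cell viability assay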
Description: SANGER: Inhibition of human KURAMOCHI cell growth in a cell viability assay.

[29] = tested on: no-11; format: functional, cell-based, Homo sapiens; conditions: Homo sapiens;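 further: growth inhibition of human NO-11 cells, read out with a cell viability assay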
Description: SANGER: Inhibition of human no-11 cell growth in a cell viability assay.

[30] = tested on: TGW; format: functional, cell-based; conditions: Homo sapiens;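 further: growth inhibition of human TGW cells, read out with a cell viability assay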
Description: SANGER: Inhibition of human TGW cell growth in a cell viability assay.

[31] = tested on: HuP-T4; format: functional, cell-based, Homo sapiens; conditions: Homo sapiens, HuP-T4;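 further: cell viability assay measuring how much HuP-T4 cell growth is inhibited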
Description: SANGER: Inhibition of human HuP-T4 cell growth in a cell viability assay.

[32] = tested on: HCC 2998; format: functional, cell-based, Homo sapiens; conditions: Homo sapiens, HCC 2998;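 further: growth inhibition of human HCC2998 cells, measured with a cell viability read-out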
Description: SANGER: Inhibition of human HCC2998 cell growth in a cell viability assay.

[33] = tested on: ME-180; format: functional, cell-based; conditions: Homo sapiens;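 further: cell viability assay measuring growth inhibition of ME-180 cells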
Description: SANGER: Inhibition of human ME-180 cell growth in a cell viability assay.

[34] = tested on: SK-N-AS; format: functional, cell-based, Homo sapiens; conditions: Homo sapiens, SK-N-AS;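 further: growth inhibition of human SK-N-AS cells, measured with a cell viability assay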
Description: SANGER: Inhibition of human SK-N-AS cell growth in a cell viability assay.

[35] = tested on: NCI-H2122; format: functional, cell-based, Homo sapiens; conditions: Homo sapiens, NCI-H2122;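 further: growth inhibition of the cells, read out with a cell viability assay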
Description: SANGER: Inhibition of human NCI-H2122 cell growth in a cell viability assay.

[36] = tested on: NCI-H650; format: functional, cell-based, Homo sapiens; conditions: Homo sapiens, NCI-H650;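 further: growth inhibition of NCI-H650 cells, read out by a viability assay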
Description: SANGER: Inhibition of human NCI-H650 cell growth in a cell viability assay.

[37] = tested on: H4; format: functional, cell-based; conditions: Homo sapiens
Description: SANGER: Inhibition of human H4 cell growth in a cell viability assay.

[38] = tested on: HAL-01; format: functional, cell-based; conditions: Homo sapiens;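 further: growth inhibition of human HAL-01 cells, read out with a cell viability assay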
Description: SANGER: Inhibition of human HAL-01 cell growth in a cell viability assay.

[39] = tested on: COLO-680N; format: functional, cell-based, Homo sapiens; conditions: Homo sapiens, COLO-680N;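 further: cell viability assay used to measure inhibition of COLO-680N cell growth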
Description: SANGER: Inhibition of human COLO-680N cell growth in a cell viability assay.

[40] = tested on: FTC-133; format: functional, cell-based, Homo sapiens; conditions: Homo sapiens, FTC-133
[41] = tested on: MDA-MB-361; format: functional, cell-based, Homo sapiens; conditions: Homo sapiens, MDA-MB-361
[42] = tested on: HTC-C3; format: functional, cell-based, Homo sapiens; conditions: Homo sapiens, HTC-C3;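 further: inhibition of cell growth, read out with a cell viability assay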
Description: SANGER: Inhibition of human HTC-C3 cell growth in a cell viability assay.

[43] = tested on: HOP-92; format: functional, cell-based, Homo sapiens; conditions: Homo sapiens, HOP-92;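 further: cell viability readout, with IC50 reflecting inhibition of HOP-92 cell growth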
Description: SANGER: Inhibition of human HOP-92 cell growth in a cell viability assay.

[44] = tested on: DJM-1; format: functional, cell-based, Homo sapiens; conditions: Homo sapiens, DJM-1;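 further: growth inhibition of human DJM-1 cells, read out by a cell viability assay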
Description: SANGER: Inhibition of human DJM-1 cell growth in a cell viability assay.

[45] = tested on: NKM-1; format: functional, cell-based; conditions: Homo sapiens;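 further: growth inhibition of NKM-1 cells, read out with a cell viability assay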
Description: SANGER: Inhibition of human NKM-1 cell growth in a cell viability assay.

[46] = tested on: EOL1; format: functional, cell-based; conditions: Homo sapiens;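 further: growth inhibition of EoL-1 cells, read out by a cell viability assay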
Description: SANGER: Inhibition of human EoL-1-cell cell growth in a cell viability assay.

[47] = tested on: OS-RC-2; format: functional, cell-based, Homo sapiens; conditions: Homo sapiens, OS-RC-2;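 further: growth inhibition of human OS-RC-2 cells, measured by a cell viability assay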
Description: SANGER: Inhibition of human OS-RC-2 cell growth in a cell viability assay.

[48] = tested on: COLO-684; format: functional, cell-based; conditions: Homo sapiens
Description: SANGER: Inhibition of human COLO-684 cell growth in a cell viability assay.

[49] = tested on: SK-N-FI; format: functional, cell-based, Homo sapiens; conditions: Homo sapiens, SK-N-FI;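 further: cell viability assay measuring growth inhibition of human SK-N-FI cells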
Description: SANGER: Inhibition of human SK-N-FI cell growth in a cell viability assay.

[50] = tested on: GMS-10; format: functional, cell-based, Homo sapiens; conditions: Homo sapiens, GMS-10;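 further: growth inhibition of GMS-10 cells, read out as cell viability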
Description: SANGER: Inhibition of human GMS-10 cell growth in a cell viability assay.

[51] = tested on: HT-29; format: functional, cell-based, Homo sapiens; conditions: Homo sapiens, HT-29;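 further: growth inhibition of human HT-29 cells, read out by a cell viability assay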
Description: SANGER: Inhibition of human HT-29 cell growth in a cell viability assay.

[52] = tested on: OMC-1; format: functional, cell-based, Homo sapiens; conditions: Homo sapiens, OMC-1;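 further: growth inhibition of the OMC-1 cell line, measured by a cell viability assay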
Description: SANGER: Inhibition of human OMC-1 cell growth in a cell viability assay.

Compound: CC(=O)O[C@@H]1[C@@H](OC(C)=O)[C@@H](O)[C@H](Oc2c(-c3ccc(O)cc3)oc3cc(O)cc(O)c3c2=O)O[C@H]1C
- IC50 [1]: > 10000 nM
- IC50 [2]: > 10000 nM
- IC50 [3]: > 10000 nM
- IC50 [4]: 3010 nM
- IC50 [5]: > 10000 nM
- IC50 [6]: > 10000 nM
- IC50 [7]: > 10000 nM
- IC50 [8]: > 10000 nM
- IC50 [9]: > 10000 nM
- IC50 [10]: > 10000 nM
- IC50 [11]: > 10000 nM
- IC50 [12]: > 10000 nM
- IC50 [13]: > 10000 nM
- IC50 [14]: > 10000 nM
- IC50 [15]: > 10000 nM
- IC50 [16]: > 10000 nM
- IC50 [17]: > 10000 nM
- IC50 [18]: > 10000 nM
- IC50 [19]: > 10000 nM
- IC50 [20]: > 10000 nM
- IC50 [21]: > 10000 nM
- IC50 [22]: > 10000 nM
- IC50 [23]: > 10000 nM
- IC50 [24]: > 10000 nM
- IC50 [25]: > 10000 nM
- IC50 [26]: > 10000 nM
- IC50 [27]: > 10000 nM
- IC50 [28]: > 10000 nM
- IC50 [29]: > 10000 nM
- IC50 [30]: > 10000 nM
- IC50 [31]: > 10000 nM
- IC50 [32]: > 10000 nM
- IC50 [33]: > 10000 nM
- IC50 [34]: > 10000 nM
- IC50 [35]: > 10000 nM
- IC50 [36]: > 10000 nM
- IC50 [37]: > 10000 nM
- IC50 [38]: > 10000 nM
- IC50 [39]: > 10000 nM
- IC50 [40]: > 10000 nM
- IC50 [41]: > 10000 nM
- IC50 [42]: > 10000 nM
- IC50 [43]: > 10000 nM
- IC50 [44]: > 10000 nM
- IC50 [45]: > 10000 nM
- IC50 [46]: > 10000 nM
- IC50 [47]: > 10000 nM
- IC50 [48]: > 10000 nM
- IC50 [49]: > 10000 nM
- IC50 [50]: > 10000 nM
- IC50 [51]: > 10000 nM

Compound: C=CCNC1=C2C[C@@H](C)C[C@H](OC)[C@H](O)[C@@H](C)/C=C(\C)[C@H](OC(N)=O)[C@@H](OC)/C=C\C=C(/C)C(=O)NC(=CC1=O)C2=O [TANESPIMYCIN]
- IC50 [1]: > 1000 nM
- IC50 [2]: 2.07 nM
- IC50 [3]: 417 nM
- IC50 [4]: 687 nM
- IC50 [5]: 299 nM
- IC50 [6]: 104 nM
- IC50 [7]: 301 nM
- IC50 [8]: 258 nM
- IC50 [9]: 112 nM
- IC50 [10]: > 1000 nM
- IC50 [11]: > 1000 nM
- IC50 [12]: > 1000 nM
- IC50 [13]: 42.4 nM
- IC50 [14]: 851 nM
- IC50 [15]: > 1000 nM
- IC50 [16]: 23.5 nM
- IC50 [17]: 271 nM
- IC50 [18]: 317 nM
- IC50 [19]: 38.1 nM
- IC50 [20]: > 1000 nM
- IC50 [21]: > 1000 nM
- IC50 [22]: > 1000 nM
- IC50 [23]: 86.2 nM
- IC50 [24]: 527 nM
- IC50 [25]: 187 nM
- IC50 [26]: > 1000 nM
- IC50 [27]: > 1000 nM
- IC50 [28]: 952 nM
- IC50 [29]: 370 nM
- IC50 [30]: > 1000 nM
- IC50 [52]: 118 nM
- IC50 [31]: 129 nM
- IC50 [32]: 73.5 nM
- IC50 [33]: 28.9 nM
- IC50 [34]: > 1000 nM
- IC50 [35]: 97.4 nM
- IC50 [36]: 177 nM
- IC50 [37]: 30.9 nM
- IC50 [38]: > 1000 nM
- IC50 [39]: 194 nM
- IC50 [40]: 165 nM
- IC50 [41]: 15 nM
- IC50 [42]: 265 nM
- IC50 [43]: > 1000 nM
- IC50 [44]: > 1000 nM
- IC50 [45]: 107 nM
- IC50 [46]: 222 nM
- IC50 [47]: 245 nM
- IC50 [48]: 345 nM
- IC50 [49]: > 1000 nM
- IC50 [50]: 67 nM
- IC50 [51]: 69.2 nM
